Drawing on patent US8461328B2, “Tricyclic heterocyclic compounds, compositions and methods of use thereof” (Genentech, Inc., priority 2010, dated 2013), this text covers Ki for 19 molecules.

Structures are written as SMILES. Counter-ions that a name gives are not always drawn.

Assay type in all cases: biochemical
The target in one assay is T1, JAK1 (Homo sapiens, UniProt P23458).
T1 construct: made in house; host or cells: SF9 insect cells (baculovirus)
Put plainly: JAK1 inhibition (Table 4). As to conditions: read-out: JAK1 Ki.

Another assay concerns the target T2, JAK2 (Homo sapiens, UniProt O60674).
T2 construct: made in house; host or cells: SF9 insect cells (baculovirus)
Put plainly: JAK2 inhibition (Table 4). Particulars: read-out: JAK2 Ki.

A further assay has as its target T3, JAK3 (Homo sapiens, UniProt P52333).
T3 construct: made in house; host or cells: SF9 insect cells (baculovirus)
Put plainly: JAK3 inhibition (Table 4). As to conditions: read-out: JAK3 Ki.

In a further assay the target is T4, TYK2 (Homo sapiens, UniProt P29597).
T4 construct: made in house; host or cells: SF9 insect cells (baculovirus)
T4 sequence (P29597 873-1187): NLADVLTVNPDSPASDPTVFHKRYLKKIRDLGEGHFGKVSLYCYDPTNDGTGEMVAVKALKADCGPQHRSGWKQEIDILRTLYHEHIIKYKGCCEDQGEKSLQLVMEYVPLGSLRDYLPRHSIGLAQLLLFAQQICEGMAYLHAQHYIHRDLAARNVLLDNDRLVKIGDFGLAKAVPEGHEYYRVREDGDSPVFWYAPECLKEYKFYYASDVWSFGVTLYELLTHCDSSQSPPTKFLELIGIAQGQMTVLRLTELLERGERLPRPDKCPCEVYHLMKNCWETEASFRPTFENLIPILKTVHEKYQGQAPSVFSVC
Kind of assay: TYK2 inhibition (Table 4).

T1 sequence (P23458 852-1154): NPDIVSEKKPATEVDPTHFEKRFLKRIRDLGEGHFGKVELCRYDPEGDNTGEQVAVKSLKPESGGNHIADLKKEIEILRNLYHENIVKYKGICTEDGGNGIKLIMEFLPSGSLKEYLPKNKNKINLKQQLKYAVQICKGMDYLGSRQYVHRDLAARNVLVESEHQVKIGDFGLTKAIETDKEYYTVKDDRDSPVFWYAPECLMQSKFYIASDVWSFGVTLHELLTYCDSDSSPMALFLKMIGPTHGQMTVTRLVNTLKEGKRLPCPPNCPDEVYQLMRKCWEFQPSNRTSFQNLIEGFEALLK
T3 sequence (P52333 783-1124): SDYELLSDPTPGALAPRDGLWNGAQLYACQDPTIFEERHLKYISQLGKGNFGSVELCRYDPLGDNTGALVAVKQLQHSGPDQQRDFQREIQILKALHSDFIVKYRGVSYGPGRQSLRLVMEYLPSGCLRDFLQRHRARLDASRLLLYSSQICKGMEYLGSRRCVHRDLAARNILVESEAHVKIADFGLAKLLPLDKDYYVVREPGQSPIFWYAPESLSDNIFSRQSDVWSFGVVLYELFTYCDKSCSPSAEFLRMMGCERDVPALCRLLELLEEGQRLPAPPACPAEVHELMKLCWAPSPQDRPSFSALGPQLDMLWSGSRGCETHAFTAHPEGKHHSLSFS
T2 sequence (O60674 812-1132): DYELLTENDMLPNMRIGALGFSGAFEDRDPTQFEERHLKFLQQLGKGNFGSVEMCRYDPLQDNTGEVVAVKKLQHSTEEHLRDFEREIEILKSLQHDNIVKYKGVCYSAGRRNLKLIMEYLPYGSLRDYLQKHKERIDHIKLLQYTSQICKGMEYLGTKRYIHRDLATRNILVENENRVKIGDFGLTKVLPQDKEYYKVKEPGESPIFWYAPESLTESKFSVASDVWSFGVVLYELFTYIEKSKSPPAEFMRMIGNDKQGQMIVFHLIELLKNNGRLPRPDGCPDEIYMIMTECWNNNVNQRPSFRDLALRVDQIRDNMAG

`Cc1nc2cnc3[nH]ccc3c2n1[C@@H]1CCCC(=O)C1` [Example 885, (R)-3-(2-Methyl-6H-1,3,5,6-tetraaza-as-indacen-1-yl)-cyclohexanone]: the Ki at JAK1 was 6.16 nM; at JAK2, 23.8 nM; at JAK3, 47.8 nM; on TYK2 it was 33 nM.

For `FCCN1CCC(n2cnc3cnc4[nH]ccc4c32)CC1` [Example 212, 1-[1-(2-Fluoro-ethyl)-piperidin-4-yl]-1,6-dihydro-1,2,3,5,6-tetraaza-as-indacene], the Ki at JAK1 is 2.17 nM; at JAK2 it was 3.21 nM; on JAK3, 59 nM; on TYK2, 11.6 nM.

With `C[C@@H](O)c1nc2cnc3[nH]ccc3c2n1[C@@H]1CCCN(C(=O)C2CCC2)C1` [Example 792, Cyclobutyl-{(R)-3-[2-((R)-1-hydroxy-ethyl)-6H-1,3,5,6-tetraaza-as-indacen-1-yl]-piperidin-1-yl}-methanone], the inhibition constant Ki at JAK1 stood at 76.4 nM; at JAK2, 260 nM; at JAK3, 1060 nM; on TYK2 it was 448 nM.

In the case of `OC[C@]1(O)CC[C@H](n2nnc3cnc4[nH]ccc4c32)CC1` [Example 715, Trans-1-Hydroxymethyl-4-(6H-1,2,3,5,6-pentaaza-as-indacen-1-yl)-cyclohexanol], the Ki on JAK1 is 11.5 nM; at JAK2, 16.9 nM; on JAK3, 109 nM; at TYK2, 58.2 nM.

Consider `C[C@@H](O)c1nc2cnc3[nH]ccc3c2n1C1CCC(NCC(F)F)CC1` (stereo partly drawn) [Example 1002, (R)-1-{1-[4-(2,2-Difluoro-ethylamino)-cyclohexyl]-1,6-dihydro-1,3,5,6-tetraaza-as-indacen-2-yl}-ethanol], for which the Ki on JAK1 was found to be 0.97 nM; on JAK2, 22.1 nM; on JAK3 it was 111 nM; on TYK2 it was 4.76 nM.

`NC(=O)Cc1nc2cnc3[nH]ccc3c2n1C1CCN(Cc2ccccc2)CC1` [Example 245, 2-[1-(1-Benzyl-piperidin-4-yl)-1,6-dihydro-1,3,5,6-tetraaza-as-indacen-2-yl]-acetamide]: the Ki on JAK1 came to 9.84 nM; on JAK2, 43.1 nM; at JAK3 it was 19.4 nM; on TYK2, 468 nM.

Turning to `Cc1nc2cnc3[nH]ccc3c2n1C1CCN(CC(O)CO)CC1` (stereo not shown) [Example 698, 3-[4-(2-Methyl-6H-1,2,3,5,6-tetraaza-as-indacen-1-yl)-piperidin-1-yl]-propane-1,2-diol], the Ki was determined as 6.41 nM at JAK1, 25.6 nM at JAK2, 66.9 nM at JAK3 and 74.4 nM at TYK2.

As to `Cc1nc2cnc3[nH]ccc3c2n1C1CCC(NC(=O)OC(C)(C)C)C1` (racemic) [Example 352, [(1S,3S)-3-(2-Methyl-6H-1,3,5,6-tetraaza-as-indacen-1-yl]-cyclopentyl]-carbamic acid tert-butyl ester], the Ki on JAK1 worked out at 1.03 nM; at JAK2, 5.62 nM; at JAK3, 23.7 nM; on TYK2, 44.6 nM.

For the molecule `CCN1CC[C@@H](n2c([C@@H](C)O)nc3cnc4[nH]ccc4c32)[C@@H](F)C1` [Example 868, (R)-1-[1-((3S,4R)-1-Ethyl-3-fluoro-piperidin-4-yl)-1,6-dihydro-1,3,5,6-tetraaza-as-indacen-2-yl]-ethanol], the Ki turned out to be 7.07 nM at JAK1, 148 nM on JAK2, 119 nM on JAK3 and 149 nM on TYK2.

With `Cc1nc2cnc3[nH]ccc3c2n1C1CC2CCC1C2` (stereo not shown) [Example 121, 1-Bicyclo[2.2.1]hept-2-yl-2-methyl-1,6-dihydro-1,2,3,5,6-tetraaza-as-indacene], the Ki at JAK1 is 1.01 nM; at JAK2 it was 2.78 nM; on JAK3 it was 9.31 nM; at TYK2, 5.09 nM.

As for `N#CCCN1CCC(n2c(COC3CCOCC3)nc3cnc4[nH]ccc4c32)CC1` [Example 837, 3-{4-[2-(Tetrahydro-pyran-4-yloxymethyl)-6H-1,3,5,6-tetraaza-as-indacen-1-yl]-piperidin-1-yl}-propionitrile], the Ki is 39.6 nM at JAK1, 83.2 nM on JAK2, 114 nM on JAK3 and 298 nM at TYK2.

In the case of `Cc1nc2cnc3[nH]ccc3c2n1C1CCN(C2COC2)CC1` [Example 363, 2-Methyl-1-(1-oxetan-3-yl-piperidin-4-yl)-1,6-dihydro-1,3,5,6-tetraaza-as-indacene], the Ki at JAK1 stood at 6.05 nM; at JAK2, 11.2 nM; at JAK3, 123 nM; at TYK2, 54.6 nM.

For the molecule `N#CCN1CCC(N[C@H]2CC[C@H](n3cnc4cnc5[nH]ccc5c43)CC2)CC1` [Example 568, trans {4-[4-(6H-1,3,5,6-Tetraaza-as-indacen-1-yl)-cyclohexylamino]-piperidin-1-yl}-acetonitrile], the Ki at JAK1 is 2.91 nM; on JAK2 it was 48.6 nM; on JAK3, 59.8 nM; on TYK2, 65.2 nM.

For `O=C1CC(n2cnc3cnc4[nH]ccc4c32)CCN1Cc1ccccc1` (racemic) [Example 129, 1-Benzyl-4-(6H-1,2,3,5,6-tetraaza-as-indacen-1-yl)-piperidin-2-one], the Ki on JAK1 is 43.8 nM; at JAK2 it was 57.2 nM; on JAK3, 535 nM; at TYK2, 312 nM.

For `CCC(COC)n1c(C(C)O)nc2cnc3[nH]ccc3c21` (single isomer, unassigned) [Example 182, 1-[1-(1-Methoxymethyl-propyl)-1,6-dihydro-1,2,3,5,6-tetraaza-as-indacen-2-yl]-ethanol], the Ki at JAK1 was found to be 167 nM; on JAK2, 435 nM; on JAK3, 154 nM; on TYK2, 955 nM.

Consider `COC(=O)N[C@H]1CC[C@H](n2c(CO)nc3cnc4[nH]ccc4c32)CC1` [Example 600, Trans[4-(2-hydroxymethyl-6H-1,2,3,5,6-tetraaza-as-indacen-1-yl)-cyclohexyl]-carbamic acid methyl ester], for which the Ki on JAK1 was 2.73 nM; on JAK2, 23.2 nM; on JAK3, 172 nM; on TYK2, 20.8 nM.

For the molecule `Cc1nc2cnc3[nH]ccc3c2n1C1CCN(Cc2ccccc2)CC1C` (racemic) [Example 151, Racemic 1-(1-benzyl-3-methyl-piperidin-4-yl)-2-methyl-1,6-dihydro-1,2,3,5,6-tetraaza-as-indacene dihydrochloride salt], the Ki on JAK1 worked out at 1.78 nM; at JAK2 it was 2.27 nM; at JAK3, 13.5 nM; at TYK2 it was 31.2 nM.

For `COC[C@H]1CC[C@H](n2c([C@@H](C)O)nc3cnc4[nH]ccc4c32)CC1` [Example 637, Trans (R)-1-[1-(4-methoxymethyl-cyclohexyl)-1,6-dihydro-1,2,3,5,6-tetraaza-as-indacen-2-yl]-ethanol], the Ki at JAK1 is 1.89 nM; on JAK2, 35.6 nM; at JAK3 it was 37 nM; at TYK2, 7.42 nM.

Take `c1cc2c(ncc3ncn(C4CCOCC4)c32)[nH]1` [Example 468, 1-(Tetrahydro-pyran-4-yl)-1,6-dihydro-1,3,5,6-tetraaza-as-indacene]: the Ki at JAK1 was determined as 14.4 nM; at JAK2 it was 46.6 nM; on JAK3, 150 nM; at TYK2, 82.3 nM.

For orientation: Ki means a dissociation constant, usually derived from enzyme kinetics or from competition with a known ligand.
